The values below come from ChEMBL document CHEMBL3046147, “Synthesis and Herbicidal Activity of 1-Arylalkyl-3-pyrrolin-2-one Derivatives” (J Pestic Sci, 2000).

Data set [1] deals with Echinochloa oryzicola. Description: Pre-emergence herbicide activity against Echinochloa oryzicola under greenhouse condition measured after 14 to 20 days. Format: functional.
Data set [2] relates to Oryza sativa. Put plainly: Phytotoxicity against two-leaf stage Oryza sativa cv. Nihonbare (rice) planted 1 cm depth measured after […]. Format: organism-based. The note with it: in vivo.
Data set [3] relates to Oryza sativa. Description: Phytotoxicity against two-leaf stage Oryza sativa cv. Nihonbare (rice) planted 3 cm depth measured after […]. It counts as organism-based. The note with it: in vivo.
The test system of data set [4] is Sagittaria pygmaea. Description: Herbicide activity against Sagittaria pygmaea under greenhouse condition compound treated at 0.5 leaf-stage measured after 14 to 20 days. It counts as functional.
For data set [5], the system named is Schoenoplectiella juncoides. Put plainly: Herbicide activity against Schoenoplectiella juncoides under greenhouse condition compound treated at emergence-stage measured after 14 to 20 days. It counts as functional.
Data set [6] concerns Echinochloa oryzicola. Put plainly: Herbicide activity against Echinochloa oryzicola under greenhouse condition compound treated at 2 leaf-stage measured after 14 to 20 days. It counts as functional.

With `CC1=C(Oc2ccccc2)C(=O)N(C(C)(C)c2nc3ccccc3s2)C1`, the MED in data set [1] worked out at 80 g/acre; in data set [4], 40 g/acre; in data set [5], 80 g/acre. The MTD in data set [2] and in data set [3] was 40 g/acre in each case.

On to `CC1=C(c2ccccc2)C(=O)N(C(C)(C)c2nc3cccnc3s2)C1`, for which the MED is on record as 0.313 g/acre in data set [1], 5 g/acre in data set [4], 2.5 g/acre in data set [5] and 2.5 g/acre in data set [6]. Moreover, the MTD is on record as over 0.313 g/acre in data set [2] and 0.313 g/acre in data set [3].

For the compound `CC1=C(c2cccc([N+](=O)[O-])c2)C(=O)N(C(C)(C)c2nc3ccccc3s2)C1`, the MED in data set [1] is 160 g/acre; in data set [4], 160 g/acre; in data set [5] it was 160 g/acre; in data set [6], under 5 g/acre. The MTD in data set [2] and in data set [3] was 80 g/acre throughout.

With `CC1=C(/C=C/c2ccccc2)C(=O)N(C(C)(C)c2nc3ccccc3s2)C1`, the MED is 160 g/acre in data set [1], 80 g/acre in data set [4], 80 g/acre in data set [5] and under 5 g/acre in data set [6]. Also, the MTD in data set [2] and in data set [3] was 80 g/acre each time.

Take `CC1=C(c2ccccc2)C(=O)N(C(C)(C)c2ncc(C(F)(F)F)cc2Cl)C1`: the MED in data set [1] is under 5 g/acre; in data set [4] it was 80 g/acre; in data set [5], 80 g/acre; in data set [6], under 5 g/acre. Also, the MTD is 5 g/acre in data set [2] and 20 g/acre in data set [3].

For the compound `CC1=C(c2ccccc2C#N)C(=O)N(C(C)(C)c2nc3ccccc3s2)C1`, the MED is on record as 10 g/acre in data set [1], 40 g/acre in data set [4], 5 g/acre in data set [5] and under 5 g/acre in data set [6]. Besides, the MTD in data set [2] is given as over 5 g/acre; in data set [3], 5 g/acre.

As for `COc1ccc(OC)c(C2=C(C)CN(C(C)(C)c3nc4ccccc4s3)C2=O)c1`, the MED in data set [1] is listed as 80 g/acre; in data set [4] it was 160 g/acre; in data set [5] it was 160 g/acre; in data set [6], under 5 g/acre. In addition, the MTD stood at 10 g/acre in data set [2] and 20 g/acre in data set [3].

For the compound `CC1=C(c2ccccc2)C(=O)N(C(C)(C)c2ccsc2)C1`, the MED in data set [1] is recorded as 5 g/acre; in data set [4] it was 20 g/acre; in data set [5] it was 5 g/acre; in data set [6], under 10 g/acre. Besides, the MTD in data set [2] came to 20 g/acre; in data set [3] it was 40 g/acre.

Turning to `CC1=C(c2ccc(F)cc2)C(=O)N(C(C)(C)c2nc3ccccc3s2)C1`, the MED is on record as 5 g/acre in data set [1], 20 g/acre in data set [4], 20 g/acre in data set [5] and 5 g/acre in data set [6]. Also, the MTD in data set [2] was over 5 g/acre; in data set [3] it was 20 g/acre.

On to `CC1=C(c2cccc(F)c2)C(=O)N(C(C)(C)c2nc3ccccc3s2)C1`, for which the MED in data set [1] stood at 5 g/acre; in data set [4] it was 40 g/acre; in data set [5], 40 g/acre; in data set [6] it was 5 g/acre. Further, the MTD stood at 5 g/acre in data set [2] and 20 g/acre in data set [3].

With `CC1=C(c2ccccc2)C(=O)N(C(C)(C)c2sc3ccccc3[n+]2[O-])C1`, the MED was under 10 g/acre in data set [1], 160 g/acre in data set [4], 160 g/acre in data set [5] and under 5 g/acre in data set [6]. For the same compound, the MTD in data set [2] and in data set [3] was 80 g/acre in each case.

As for `CC1=C(c2ccccc2)C(=O)N(C(C)(C)c2cc3ccccc3s2)C1`, the MED in data set [1] came to 0.313 g/acre; in data set [4], 160 g/acre; in data set [5] it was 80 g/acre; in data set [6], 5 g/acre. Further, the MTD in data set [2] is 10 g/acre; in data set [3], 20 g/acre.

As to `CC1=C(c2ccccc2)C(=O)N(C(C)(C)c2nc3cccc(Cl)c3s2)C1`, the MED in data set [1] is on record as 0.156 g/acre; in data set [4], 80 g/acre; in data set [5], 40 g/acre; in data set [6] it was under 5 g/acre. Also, the MTD in data set [2] is 10 g/acre; in data set [3], 20 g/acre.

For `CC1=C(c2ccccc2)C(=O)N(C(C)(C)c2ccc(Cl)s2)C1`, the MED in data set [1] came out at 0.625 g/acre; in data set [4], 80 g/acre; in data set [5] it was 10 g/acre; in data set [6], 10 g/acre. Further, the values for the MTD in data set [2] and in data set [3] were 10 g/acre and 20 g/acre, respectively.

Consider `CC1=C(c2ccc(Cl)cc2)C(=O)N(C(C)(C)c2nc3ccccc3s2)C1`, for which the MED is 80 g/acre in data set [1], 160 g/acre in data set [4], 160 g/acre in data set [5] and under 5 g/acre in data set [6]. For the same compound, the MTD is reported as 20 g/acre in data set [2] and 40 g/acre in data set [3].

Regarding `CC(C)(c1nc2ccccc2s1)N1CC=C(c2ccccc2)C1=O`, the MED in data set [1] stood at 0.625 g/acre; in data set [4], 10 g/acre; in data set [5], 5 g/acre; in data set [6], 5 g/acre. Also, the MTD is on record as 2.5 g/acre in data set [2] and under 20 g/acre in data set [3].

As to `CC1=C(c2ccccc2)C(=O)N(C(C)(C)c2nc3ccc(Cl)cc3s2)C1`, the MED in data set [1] is on record as 1.25 g/acre; in data set [4] it was 80 g/acre; in data set [5] it was 160 g/acre; in data set [6] it was under 5 g/acre. In addition, the MTD amounted to 20 g/acre in data set [2] and 40 g/acre in data set [3].

`CC1=C(c2ccccc2O)C(=O)N(C(C)(C)c2nc3ccccc3s2)C1`: the MED in data set [1] is listed as 10 g/acre; in data set [4], 80 g/acre; in data set [5], 2.5 g/acre; in data set [6], under 5 g/acre. The MTD in data set [2] came out at 20 g/acre; in data set [3], 5 g/acre.

In the case of `CC1=C(c2ccccc2)C(=O)N(C(C)(C)c2nc3cc(F)ccc3s2)C1`, the MED in data set [1] amounted to 1.25 g/acre; in data set [4], 20 g/acre; in data set [5], 40 g/acre; in data set [6] it was 5 g/acre. Besides, the MTD in data set [2] came out at 1.25 g/acre; in data set [3], 10 g/acre.

With `CC1=C(c2cccc3ccccc23)C(=O)N(C(C)(C)c2nc3ccccc3s2)C1`, the MED in data set [1], in data set [4] and in data set [5] was 80 g/acre in each case. For the same compound, the MTD in data set [2] and in data set [3] was 80 g/acre in each case.

As to `CC1=C(c2ccccc2)C(=O)N(C(C)(C)c2ccccn2)C1`, the MED is reported as 20 g/acre in data set [1], 80 g/acre in data set [4] and 40 g/acre in data set [5].

As for `CC1=C(c2ccccc2)C(=O)N(C(C)(C)c2nc3cc(Br)ccc3s2)C1`, the MED is 20 g/acre in data set [1], 160 g/acre in data set [4] and 160 g/acre in data set [5]. Moreover, the MTD in data set [2] and in data set [3] was 80 g/acre in each case.
